Experimental findings from publication PMC5548886 (Cancer Medicine, 2017) are described below.

What all share (assay type): in vivo, human
One assay has as its system p53. Put plainly: IHC of tumor biopsies, H-score change on-treatment vs pretreatment. As to the method: (§1) Pharmacodynamic markers were examined using peripheral blood samples, tumor and nevi biopsies (when available) and tumor imaging. BRAF mutation status was determined by Sanger sequencing. Pharmacodynamic markers analyzed, in available tumor/nevus samples obtained before treatment or archival tissue and during treatment on cycle 1, day 8 or day 15, including cytoplasmic p‐MEK, p‐ERK, BIM, c‐KIT, p‐AKT473, pS6 and PTEN, and nuclear p‐ERK, Ki‐67, PARP, cyclin D1, MITF, p27, and p53. Biomarker expression was determined by calculating the percentage of change in the H‐score (14) between on‐treatment and fresh/archival pretreatment specimens. Blood levels of VEGFR‐2 and were assessed before and at multiple time points while on treatment using enzyme‐linked immunosorbent assay (ELISA). […] Changes in standard uptake value (SUV) were determined by a blinded, independent central imaging review panel. Complete metabolic response (CMR) was complete resolution of tumor FDG‐PET uptake so SUV is the same as background. Partial metabolic response (PMR) decrease in sum of the tumor SUV of ≥25% from the baseline scan. Progressive metabolic disease (PMD) was defined as an increase in tumor SUV of ≥25% from the baseline scan, or the appearance of new FDG‐PET uptake in metastatic lesions. Stable metabolic disease (SMD) was defined as a change in tumor SUV between the PMR and PMD criteria.

In the next assay the test system is PTEN. The description is as above. The procedure: as §1
Assay [1] concerns soluble VEGFR-2 (sVEGFR-2). Put plainly: Blood level by ELISA. As to conditions: all dose levels, over time. The procedure: as §1

Turning to `Cn1c(Nc2ccc(C(F)(F)F)cc2)nc2cc(Oc3ccnc(-c4ncc(C(F)(F)F)[nH]4)c3)ccc21` [RAF265], the “P53 % change vs pretreatment, Mean (SD)” value is reported as “+42.14 (195.033) %” with p53 (All patients, n 20); “+82.33(190.5) %” with p53 (DL 5, n 2); “+49.32 (123.273) %” with p53 (DL 6, n 4); -27.30 (49.484) % in the assay on p53 (DLs 1 - 4, n 10); “+188.5 (400.62) %” in the assay with p53 (DLs 7 and 7.1, n 4). The “P53 % change vs pretreatment, Median” value is recorded as “+82.4%” in the assay with p53 (DL 5, n 2); -3.8% in the assay on p53 (DL 6, n 4); -29.2% with p53 (DLs 1 - 4, n 10); 0% in the assay on p53 (DLs 7 and 7.1, n 4). The “PTEN % change vs pretreatment, Mean (SD)” value is on record as -3.16 (32.4) % with PTEN (All patients, n 18); 0% in the assay on PTEN (DL 5, n 2); -9.4 (27) % in the assay with PTEN (DL 6, n 5); -5 (44.1) % in the assay on PTEN (DLs 1 - 4, n 8); 10 (17.3) % in the assay with PTEN (DLs 7 and 7.1, n 3). Moreover, the “PTEN % change vs pretreatment, Median” value in the assay with PTEN (All patients, n 18) is given as 0%; with PTEN (DL 5, n 2) it was 0%; with PTEN (DL 6, n 5) it was 0%; with PTEN (DLs 1 - 4, n 8), -7.4%; with PTEN (DLs 7 and 7.1, n 3), 0%. Also, the sVEGFR-2 levels entry in assay [1] was “significant decrease”.
